PubChem BioAssay AID588620 (NMMLSC, 2011)
Activity calls are given as the source filed them.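 How the source made its calls: active means fitted half-maximal concentration below 30 µM for cell fluorescence in pump-free yeast, so likely self-fluorescent; inactive means the rest.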

Test: concentration-dependent intrinsic compound fluorescence, S. cerevisiae AD/pABC3, flow cytometry, Cherry Pick1 hits, artefact control for antifungal efflux pump inhibitor project, dose response (AID 588620);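 further: red emission of unstained cells excited at 488 nm measured in PE-Texas Red channel; cell median fluorescence as percent of DMSO wells so 100% equals vehicle baseline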
Details: S. cerevisiae AD/pABC3 compound autofluorescence, flow cytometry; at 33.1 µM (top of the series)

| SMILES | fluorescence response, % of control |
| --- | --- |
| Cc1ccc(-c2c3c([nH]c(=S)c2C#N)CCCC3)o1 | 162% (inactive) |
| CCOC(=O)c1c(-c2ccc(-c3ccccc3)cc2)csc1NC(=O)CNCCN(C)C | 135% (inactive) |
| COc1ccc2nc(NC(=O)c3ccoc3C)sc2c1 | 117% (inactive) |
| COc1cccc(-c2sc3cc(OC)c(OC)cc3c2-c2ccc(OCCN3CCCCC3)cc2)c1 | 112% (inactive) |
| CCN(CC)C(=O)CSc1nnc(-c2ccncc2)n1N | 127% (inactive) |
| c1ccc(-c2ccc3c(c2)c2c4n3CCN=C4CCC2)cc1 | 138% (inactive) |
| COc1ccc(CCOC(=O)c2ccc(N)c([N+](=O)[O-])c2)cc1 | 110% (inactive) |
| CC(C)(C)c1cc(C(c2cccnc2)N2CCN(CCO)CC2)cc(C(C)(C)C)c1O (configuration not stated) | 78.8% (inactive) |
| O=C(O)CCCN1C(=O)/C(=C\c2ccc(-c3nc4ccccc4s3)o2)SC1=S | 288% (inactive) |
| O=C(/C=C/c1ccccc1Cl)NCCc1ccccc1 | 89.7% (inactive) |
| COc1ccc2sc(-c3ccccc3OC)c(-c3ccc(OCCN4CCOCC4)cc3)c2c1 | 81.8% (inactive) |
| O=C(c1ccoc1)N1CCC2(CC1)Oc1ccc(Cl)cc1C(=O)C21CC(c2ccc(Cl)cc2)=NO1 (configuration not stated) | 119% (inactive) |
| CCOC(=O)c1ccc(S(=O)(=O)NNS(=O)(=O)c2ccc(C)cc2)cc1 | 112% (inactive) |
| OCCN1CCN(CC/C=C2/c3ccccc3Sc3ccc(C(F)(F)F)cc32)CC1 | 332% (inactive) |
| Cc1ccc(-n2c(=O)[nH]c3c(C(N)=O)nc(-c4ccc(C)o4)nc32)cc1 | 99.1% (inactive) |
| Cc1ccsc1-c1nc(C(N)=O)c2[nH]c(=O)n(-c3ccc(Cl)cc3)c2n1 | 102% (inactive) |
| O=C(Cn1c(COc2ccccc2)nc2ccccc21)Nc1cc(Cl)c(Cl)cc1Cl | 87.6% (inactive) |
| Cc1cccc(C)c1NC(=O)C1CC2CCC1C2 (configuration not stated) | 102% (inactive) |
| Cc1ccc(OCc2cc(C(=O)NCC(C)(C)N3CCOCC3)no2)cc1C | 116% (inactive) |
| COc1ccc2nc(C)cc(Sc3nc4ccccc4s3)c2c1 | 100% (inactive) |
| Cc1ccc(C)c(Cn2nnc3c(=O)[nH]c(C4CCN(S(=O)(=O)c5ccc(S(=O)(=O)N(C)C)cc5)CC4)nc32)c1 | 119% (inactive) |

| SMILES | fluorescence response, % of control |
| --- | --- |
| Cc1ccc(Cn2nnc3c(=O)[nH]c(C4CCN(S(=O)(=O)c5ccccc5F)CC4)nc32)cc1 | 90.8% (inactive) |
| CCCCOc1ccc(NC2=NC3(CCCC3)N=C(N)N2)cc1 | 73.8% (inactive) |
| O=C1C(Cl)=C(Nc2ccc3cn[nH]c3c2)C(=O)c2ccccc21 | 145% (inactive) |
| COc1ccc(-c2nc(C(N)=O)c3[nH]c(=O)n(-c4ccccc4OC)c3n2)c(OC)c1 | 74% (inactive) |
| Cc1noc(C)c1C(=O)N1CCC2(CC1)Oc1ccc(F)cc1C(=O)C21CC(c2ccc(Cl)cc2)=NO1 (configuration not stated) | 90.5% (inactive) |
| CC(C)=C1C2CCC1C1C(=O)N(c3nc(-c4ccc(C(C)C)cc4)c(C)s3)C(=O)C21 (configuration not stated) | 111% (inactive) |
| COc1ccccc1-c1sc2ccccc2c1-c1ccc(OCCN2CCOCC2)cc1 | 99.3% (inactive) |
| Cc1ccc2c(c1)[C@H]1[C@H](CO2)[C@H](c2ccccc2)[C@]2(C)C(=O)Nc3cc(F)c(F)cc3C(=O)N12 | 90.5% (inactive) |
| Cc1ccc(/C=c2\sc3nc(-c4cccs4)nn3c2=O)o1 | 118% (inactive) |
| COc1ccc(C(=O)NC2CC(C)(C)Cc3c2cnn3-c2ccccc2)c(OC)c1 (configuration not stated) | 115% (inactive) |
| CC(C)(C)C1CCC(OC(=O)C[N+]2(C)CCCC2)CC1 (configuration not stated) | 109% (inactive) |
| COc1ccc(-n2ncc3c2CC(C)(C)CC3NC(=O)c2cn[nH]c2)cc1 (configuration not stated) | 110% (inactive) |
| Cc1cc(O)c(C(C)C)cc1C1(c2cc(C(C)C)c(O)cc2C)OC(=O)c2ccccc21 | 99.8% (inactive) |
| COc1ccc(N2C(=O)CC(N3CCN(c4ccc(C(=O)c5cccnc5)cc4)CC3)C2=O)cc1 (configuration not stated) | 88.6% (inactive) |
| COC(=O)c1ccc(CSc2nnc3c(n2)[nH]c2ccccc23)cc1 | 139% (inactive) |
| CCCOc1ccc(-c2nc(N3CCN(C)CC3)c3ccccc3n2)cc1 | 95.7% (inactive) |
| O=C(O)CCN1C(=O)/C(=C/c2ccc(-c3nc4ccccc4s3)o2)SC1=S | 234% (inactive) |
| O=C(O)c1ccc(-c2ccc(/C=c3/sc4nc5ccccc5n4c3=O)o2)cc1Cl | 365% (inactive) |
| O=C(c1ccc2c(c1)OCO2)N1CCC2(CC1)Oc1ccc(Cl)cc1C(=O)C21CC(c2ccccc2)=NO1 (configuration not stated) | 90.9% (inactive) |
| CC(C)c1ccc(S(=O)(=O)Nc2ccc(O)c(Sc3ncn[nH]3)c2)cc1 | 151% (inactive) |
| COc1ccc(/C=C/C(=O)Nc2cccc(S(=O)(=O)N3CCCC3)c2)cc1OC | 103% (inactive) |

| SMILES | fluorescence response, % of control |
| --- | --- |
| CCn1ncc(Br)c1C(=O)Nc1sc2c(c1C(=O)OC)CCC2 | 117% (inactive) |
| O=C(Nc1ccc(NC(=O)c2cccs2)cc1)c1ccc2ccccc2c1 | 125% (inactive) |
| Cc1ccc(O)c(C(=O)c2cnc3c(c2)CN(CCC(C)C)C(=O)N3)c1 | 102% (inactive) |
| COc1cc(/C=C(\C#N)c2nc3ccccc3n2C)cc(OC)c1O | 333% (inactive) |
| CCOc1ccccc1-c1nc(C(N)=O)c2[nH]c(=O)n(-c3ccc(F)cc3)c2n1 | 136% (inactive) |
| O=C(/C=C/c1cccs1)N1CCC2(CC1)Oc1ccc(F)cc1C(=O)C21CC(c2ccccc2)=NO1 (configuration not stated) | 96.4% (inactive) |
| CC1(C)CC2(CC(c3cccs3)c3cc(Cl)c(O)cc3O2)NC(=S)N1 (configuration not stated) | 113% (inactive) |
| COc1cccc(C2CC(c3ccccc3)=NN2S(=O)(=O)c2ccc(C)cc2)c1OC (configuration not stated) | 108% (inactive) |
| O=c1[nH]c(=S)[nH]c(O)c1/C=C1/C=c2ccccc2=N1 | 114% (inactive) |
| Cc1ccc(C)c(N2CCN(C(=O)C3CCCN(c4ncnc5c4nc4n5CCCCC4)C3)CC2)c1 (configuration not stated) | 89.1% (inactive) |
| O=C(NCCC1=CCCCC1)C1CCC(CNc2nc(=S)[nH]c3ccccc23)CC1 (configuration not stated) | 108% (inactive) |
| CC(C)C(O)(C#CCN1CCCCC1)C(C)C | 111% (inactive) |
| Cc1cc(C(=O)NC2CC(C)(C)Cc3c2cnn3-c2ccc(F)cc2)no1 (configuration not stated) | 98.7% (inactive) |
| O=C(c1ccoc1)N1CCC2(CC1)Oc1ccc(F)cc1C(=O)C21CC(c2ccccc2)=NO1 (configuration not stated) | 85.1% (inactive) |
| O=C1/C(=C\c2ccc(-c3ccccc3Cl)o2)SC(=S)N1CC1CCCO1 (configuration not stated) | 150% (inactive) |
| NC1=NC[C@H](Cc2ccc(O)cc2)N1CCCCC1CCCCC1 | 92.2% (inactive) |
| O=C1c2cc(Cl)ccc2OC2(CCNCC2)C12CC(c1ccc(Cl)cc1)=NO2 (configuration not stated) | 106% (inactive) |
| C[C@H]1CN([C@@H](C)CO)C(=O)c2cc(NC(=O)Nc3cccc4ccccc34)ccc2O[C@@H]1CN(C)Cc1ccc(-c2ccccc2)cc1 | 102% (inactive) |
| Cc1ccc(Cn2nnc3c(=O)[nH]c(C4CCN(S(=O)(=O)c5ccc(C)cc5)CC4)nc32)cc1 | 91.7% (inactive) |
| Cc1ccccc1S(=O)(=O)Nc1nc2ccccc2nc1N1CCc2ccccc2C1 | 103% (inactive) |
| Cc1cccc(C)c1-n1c(SCC(=O)N2CC(=O)Nc3ccccc32)nc2ccccc2c1=O | 118% (inactive) |

| SMILES | fluorescence response, % of control |
| --- | --- |
| Cc1ccc(C(=O)N2CCC3(CC2)Oc2ccc(Cl)cc2C(=O)C32CC(c3ccccc3)=NO2)s1 (configuration not stated) | 105% (inactive) |
| O=C(O)Cc1ccc(NC(=O)c2ccc(NC(=O)c3ccco3)cc2)cc1 | 109% (inactive) |
| C[C@@H]1CN(C(=O)c2cc(COc3cccc(C(F)(F)F)c3)on2)C[C@H](C)O1 | 97.1% (inactive) |
| CCN(CC)c1ccc(/C=C/c2cc(-c3ccccc3)c3ccccc3n2)cc1 | 406% (inactive) |
| CCOC(=O)c1ccc(-c2cc(C)no2)[nH]1 | 99.8% (inactive) |
| CCO[C@@H]1OC(C(=O)Nc2ccccc2)=C[C@H](c2ccc(Br)cc2)[C@H]1CCCO | 102% (inactive) |
| O=C1c2cc(Cl)ccc2OC2(CCNCC2)C12CC(c1ccccc1)=NO2 (configuration not stated) | 107% (inactive) |
| CC(C)C(=O)N1CCC2(CC1)Oc1ccc(F)cc1C(=O)C21CC(c2ccc(Cl)cc2)=NO1 (configuration not stated) | 105% (inactive) |
| COc1ccc2c(-c3ccc(OCCN4CCOCC4)cc3)c(-c3ccccc3OC)sc2c1 | 102% (inactive) |
| O=C(NCC1CCCO1)c1ccc(Br)c(S(=O)(=O)N2CCOCC2)c1 (configuration not stated) | 96.3% (inactive) |
| O=C(O)CCN1C(=O)/C(=C\c2ccc(-c3nc4ccccc4s3)o2)SC1=S | 102% (inactive) |
| CCSc1cc(N2CCCC2)nc(-c2ccc(C)cc2)n1 | 101% (inactive) |
| CS(=O)(=O)Nc1ccc(C(=O)Nc2ccc3c(c2)OCCO3)cc1 | 95.7% (inactive) |
| COc1ccc(C(=O)NC2CCCc3c2cnn3-c2cccc(C)c2C)c(OC)n1 (configuration not stated) | 75.9% (inactive) |
| c1cc2c(cc1C1CCCCC1)c1c3n2CCCNC3CCC1 (configuration not stated) | 132% (inactive) |
| Cc1ccc(CN(Cc2cccnc2)C(=O)CN2C(=O)COc3ccccc32)o1 | 96.1% (inactive) |
| Cc1sc2ncnc(SC(C)C(=O)N3c4ccccc4Sc4ccccc43)c2c1C (configuration not stated) | 126% (inactive) |
| Cc1c(NC(=O)c2ncn[nH]2)cccc1-c1nc2ccccc2s1 | 109% (inactive) |
| CCC(=O)N1CCC2(CC1)Oc1ccc(Cl)cc1C(=O)C21CC(c2ccc(Cl)cc2)=NO1 (configuration not stated) | 89.8% (inactive) |
